{"source": "PubChem BioAssay (NCI)", "test_in_all_cases": "NCI anticancer screen, dose series, 48 h", "key": {"[1]": {"test_system": "MALME-3M melanoma"}, "[2]": {"test_system": "RXF 393 renal"}, "[3]": {"test_system": "HT29 colon"}, "[4]": {"test_system": "SK-MEL-5 melanoma"}, "[5]": {"test_system": "SNB-75 CNS"}, "[6]": {"test_system": "HL-60(TB) leukemia"}, "[7]": {"test_system": "DU-145 prostate"}, "[8]": {"test_system": "EKVX NSCLC"}, "[9]": {"test_system": "M14 melanoma"}, "[10]": {"test_system": "UO-31 renal"}, "[11]": {"test_system": "NCI-H226 lung"}, "[12]": {"test_system": "OVCAR-4 ovarian"}, "[13]": {"test_system": "NCI/ADR-RES ovarian"}, "[14]": {"test_system": "NCI-H23 lung"}, "[15]": {"test_system": "SR leukemia"}, "[16]": {"test_system": "K-562 leukemia"}, "[17]": {"test_system": "SK-OV-3 ovarian"}, "[18]": {"test_system": "KM12 colon"}, "[19]": {"test_system": "UACC-257 melanoma"}, "[20]": {"test_system": "SNB-19 CNS"}, "[21]": {"test_system": "UACC-62 melanoma"}, "[22]": {"test_system": "HOP-62 NSCLC"}, "[23]": {"test_system": "RPMI-8226 leukemia"}, "[24]": {"test_system": "SF-268 CNS"}, "[25]": {"test_system": "BT-549 breast"}, "[26]": {"test_system": "IGROV1 ovarian"}, "[27]": {"test_system": "SK-MEL-28 melanoma"}, "[28]": {"test_system": "HS 578T breast"}, "[29]": {"test_system": "A498 renal"}}, "note": "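Grown in 96-well plates, cells were treated for 48 hours with each compound at five concentrations. Insufficient inhibition: endpoint recorded as highest concentration tested. Here, GI50 denotes the concentration required for 50% inhibition of growth. TGI: total growth inhibition.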", "data": [{"smiles": "C/C=C(\\C)C(=O)O[C@H]1C=CC(=O)O[C@H]1CCC(=O)[C@H](C)O", "values": [{"measurement": "GI50", "setting": "[1]", "value": 15.5, "unit": "µM"}, {"measurement": "TGI", "setting": "[1]", "value": 32.1, "unit": "µM"}, {"measurement": "GI50", "setting": "[2]", "value": 7.08, "unit": "µM"}, {"measurement": "TGI", "setting": "[2]", "value": 28.5, "unit": "µM"}, {"measurement": "GI50", "setting": "[3]", "value": 8.61, "unit": "µM"}, {"measurement": "TGI", "setting": "[3]", "value": 23.5, "unit": "µM"}, {"measurement": "GI50", "setting": "[4]", "value": 13.8, "unit": "µM"}, {"measurement": "TGI", "setting": "[4]", "value": 27.1, "unit": "µM"}, {"measurement": "GI50", "setting": "[5]", "value": 20.4, "unit": "µM"}, {"measurement": "TGI", "setting": "[5]", "value": 41.4, "unit": "µM"}, {"measurement": "GI50", "setting": "[6]", "value": 7.34, "unit": "µM"}, {"measurement": "TGI", "setting": "[6]", "value": 24.8, "unit": "µM"}, {"measurement": "GI50", "setting": "[7]", "value": 16.9, "unit": "µM"}, {"measurement": "TGI", "setting": "[7]", "value": 33.1, "unit": "µM"}, {"measurement": "GI50", "setting": "[8]", "value": 17.8, "unit": "µM"}, {"measurement": "TGI", "setting": "[8]", "value": 33.6, "unit": "µM"}, {"measurement": "GI50", "setting": "[9]", "value": 14.6, "unit": "µM"}, {"measurement": "TGI", "setting": "[9]", "value": 32.8, "unit": "µM"}, {"measurement": "GI50", "setting": "[10]", "value": 15.9, "unit": "µM"}, {"measurement": "TGI", "setting": "[10]", "value": 31.2, "unit": "µM"}, {"measurement": "GI50", "setting": "[11]", "value": 15.1, "unit": "µM"}, {"measurement": "TGI", "setting": "[11]", "value": 34.8, "unit": "µM"}, {"measurement": "GI50", "setting": "[12]", "value": 11.9, "unit": "µM"}, {"measurement": "TGI", "setting": "[12]", "value": 25.4, "unit": "µM"}, {"measurement": "GI50", "setting": "[13]", "value": 21.1, "unit": "µM"}, {"measurement": "TGI", "setting": "[13]", "value": 56.1, "unit": "µM"}, {"measurement": "GI50", "setting": "[14]", "value": 20.5, "unit": "µM"}, {"measurement": "TGI", "setting": "[14]", "value": 43.9, "unit": "µM"}, {"measurement": "GI50", "setting": "[15]", "value": 2.22, "unit": "µM"}, {"measurement": "TGI", "setting": "[15]", "value": 13.2, "unit": "µM"}, {"measurement": "GI50", "setting": "[16]", "value": 4.92, "unit": "µM"}, {"measurement": "TGI", "setting": "[16]", "value": 22.2, "unit": "µM"}, {"measurement": "GI50", "setting": "[17]", "value": 36.5, "unit": "µM"}, {"measurement": "TGI", "setting": "[17]", "value": "> 100", "unit": "µM"}, {"measurement": "GI50", "setting": "[18]", "value": 17.8, "unit": "µM"}, {"measurement": "TGI", "setting": "[18]", "value": 38.8, "unit": "µM"}, {"measurement": "GI50", "setting": "[19]", "value": 22.6, "unit": "µM"}, {"measurement": "TGI", "setting": "[19]", "value": "> 57", "unit": "µM"}, {"measurement": "GI50", "setting": "[20]", "value": 25.7, "unit": "µM"}, {"measurement": "TGI", "setting": "[20]", "value": 83.5, "unit": "µM"}, {"measurement": "GI50", "setting": "[21]", "value": 14.1, "unit": "µM"}, {"measurement": "TGI", "setting": "[21]", "value": 27.7, "unit": "µM"}, {"measurement": "GI50", "setting": "[22]", "value": 22.5, "unit": "µM"}, {"measurement": "TGI", "setting": "[22]", "value": 48.2, "unit": "µM"}, {"measurement": "GI50", "setting": "[23]", "value": 8.88, "unit": "µM"}, {"measurement": "TGI", "setting": "[23]", "value": 34, "unit": "µM"}, {"measurement": "GI50", "setting": "[24]", "value": 11.3, "unit": "µM"}, {"measurement": "TGI", "setting": "[24]", "value": 26.1, "unit": "µM"}, {"measurement": "GI50", "setting": "[25]", "value": 19, "unit": "µM"}, {"measurement": "TGI", "setting": "[25]", "value": 36.8, "unit": "µM"}, {"measurement": "GI50", "setting": "[26]", "value": 22, "unit": "µM"}, {"measurement": "TGI", "setting": "[26]", "value": 46.8, "unit": "µM"}, {"measurement": "GI50", "setting": "[27]", "value": 9.9, "unit": "µM"}, {"measurement": "TGI", "setting": "[27]", "value": 24.6, "unit": "µM"}, {"measurement": "GI50", "setting": "[28]", "value": 16.2, "unit": "µM"}, {"measurement": "TGI", "setting": "[28]", "value": 39, "unit": "µM"}, {"measurement": "GI50", "setting": "[29]", "value": 24.1, "unit": "µM"}, {"measurement": "TGI", "setting": "[29]", "value": 56.1, "unit": "µM"}]}]}
